{"source": "patent EP1010435A1", "about": "“NANOCAPSULE PREPARATIONS FOR TREATING INTRAARTICULAR DISEASES” (Maruho K.K., priority 1997, dated 1999)", "test_system": "rabbit models in which adjuvant arthritis was induced with ovalbumin (FCA)", "experiment": "Rabbit adjuvant arthritis model, intra-articular administration simultaneously with boosting", "format": "in vivo, rabbits", "experimental": "Produced were rabbit models in which adjuvant arthritis was induced with ovalbumin (FCA) according to the method of E.R.Pettipher et al. (Br.J.Exp.Path., 69, 113-122, (1988)). Three weeks after sensitization, the models were boosted again with ovalbumin at knees. Simultaneously with boosting, the sample of the present invention was administered in articular cavities.\nAn aqueous solution of betamethasone sodium phosphate so prepared that the amount of the medicament (BSP) was the same, 3mg, and physiological saline alone were administered in articular cavities as a control and as a blank test, respectively, simultaneously with boosting.\nThe outside diameter of the knees of rabbits were measured with a caliper 1 day, 3 days, 7 days, 14 days, 21 days, 28 days, 35 days and 42 days after administration. Skin temperature at the knees was measured with a contact-type surface thermometer.\nThe outside diameter of the knees and temperature measured with time are shown as values obtained by subtracting reference values from the measured values. The reference values are those before the boosting at the knees.\nFurther, blood was collected from rabbits 2 weeks, 4 weeks and 6 weeks after boosting, and the production of antibodies for ovalbumin was mesured by the ELISA method (according to the same reference by E.R.Pettipher). In addition, 6 weeks after boosting, the knee joints of rabbits are opened, and the inside of the articular cavities and surrounding tissue were morphologically observed.", "data": [{"smiles": "C[C@H]1C[C@H]2[C@@H]3CCC4=CC(=O)C=C[C@]4(C)[C@@]3(F)[C@@H](O)C[C@]2(C)[C@@]1(O)C(=O)COP(=O)(O)O", "note": "[betamethasone sodium phosphate]", "values": [{"measurement": "temperature of knees (surface skin temperature, increase)", "setting": "1 to 42 days after administration, 3 mg BSP intra-articular", "value": "fever due to inflammation was suppressed"}, {"measurement": "swell of knees (outside diameter, increase over value before boosting), later course", "setting": "after day 1 up to 5 weeks and later, 3 mg BSP intra-articular", "value": "almost the same swell as in the case of physiological saline"}, {"measurement": "swell of knees (outside diameter, increase over value before boosting)", "setting": "one day after intra-articular administration, 3 mg BSP", "value": "suppressed"}]}]}
